# Reference: patent US20120100135A1, “GENETIC POLYMORPHISMS ASSOCIATED WITH CLINICAL OUTCOMES OF TOPOISOMERASE INHIBITOR THERAPY FOR CANCER” (University of Southern California, priority 2009, published 2012)
# System: mCRC patients
# Test: Phase III EPIC trial subgroup (US sites, 186 genotyped patients): IR/CB (arm A) vs IR alone (arm B), second line after failure of FOLFOX
# Type: in vivo, human
# Procedure: This study was to test functional germline polymorphisms involved in the EGFR—(EGF, EGFR), angiogenesis—(VEGF, IL-8, CXCR-2)—and drug-metabolism related genes (UGT1A1, MTHFR) for their potential role as molecular predictors for clinical outcome in patients treated with CB/IR vs. IR alone.
# Material and Methods: DNA was extracted from all available formalin-fixed paraffin-embedded tumor samples from the phase III EPIC trial (US sites only). Genotyping was performed using PCR-RFLP assays and 5′-end [g-33P] ATP′ labeled PCR-protocols.
# Results: 186 patients were treated either with IR/CB (arm A, 84 patients) or IR (arm B, 102 patients) only. […] It was found an EGFR-CA-repeat in intron I in arm A was associated with PFS (p=0.031, log-rank test) (Table 2). In arm A, a significant association with […] (RR) (p=0.0103, Fisher's exact test) for MTHFR 1298 was found (Table 3). […] Furthermore, MTHFR 677 and MTHFR 1298 was associated with OS (adjusted p=0.028 and 0.026, respectively, Cox-proportional hazards models), independent from K-ras mutation status, race and number of disease sites.
smiles,measurement,setting,value
"CCc1c2c(nc3ccc(OC(=O)N4CCC(N5CCCCC5)CC4)cc13)-c1cc3c(c(=O)n1C2)COC(=O)[C@]3(O)CC [IR, Irinotecan]",Median PFS,95% CI,2.7 months
same,median overall survival (OS),95% CI,12.3 months
same,patients showing CR or PR,"arm A n=84, arm B n=102",6%
same,patients with SD or PD,"arm A n=84, arm B n=102",94%
